Key:
Assay in all cases: relative viability (nuclei count vs DMSO), 5 days (fraction); higher = more cells survive
Bromopyruvate + OSI-027 = compound: C(C(=O)C(=O)O)Br [Bromopyruvate] + COc1cccc2cc(-c3nc([C@H]4CC[C@H](C(=O)O)CC4)n4ncnc(N)c34)[nH]c12 [OSI-027] (partner 0.5 µM)
In short: (§1)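 Dosing by pin tool came one day after lung cancer cell lines were seeded in 1536-well plates, using either one drug or a fixed anchor-drug dose plus five library-drug doses (not always all listed) in √10 steps. After 5 days, nuclei were counted on 4× images. Relative viability is treated-well nuclei count divided by vehicle-well nuclei count, and values are medians of duplicate plates.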

[1] = compound: C(C(=O)C(=O)O)Br [Bromopyruvate] + C[C@@H](Oc1cc(-c2cnn(C3CCNCC3)c2)cnc1N)c1c(Cl)ccc(F)c1Cl [Crizotinib] (partner 1 µM)
In short: as §1

[2] = compound: C(C(=O)C(=O)O)Br [Bromopyruvate] + Nc1ncn([C@H]2C[C@H](O)[C@@H](CO)O2)c(=O)n1 [Decitabine] (partner 2 µM)
In short: as §1

Bicalutamide + OSI-027 = compound: CC(O)(CS(=O)(=O)c1ccc(F)cc1)C(=O)Nc1ccc(C#N)c(C(F)(F)F)c1 [Bicalutamide] + COc1cccc2cc(-c3nc([C@H]4CC[C@H](C(=O)O)CC4)n4ncnc(N)c34)[nH]c12 [OSI-027] (partner 0.5 µM)
In short: as §1

| Cell Line | relative viability (Bromopyruvate + OSI-027; first compound 1 µM) | relative viability (Bromopyruvate + OSI-027; first compound 3.162 µM) | relative viability (Bromopyruvate + OSI-027; first compound 10 µM) | relative viability (Bromopyruvate + OSI-027; first compound 31.62 µM) | relative viability (Bromopyruvate + OSI-027; first compound 100 µM) | relative viability ([1]; first compound 1 µM) | relative viability ([1]; first compound 3.162 µM) | relative viability ([1]; first compound 10 µM) | relative viability ([1]; first compound 31.62 µM) | relative viability ([1]; first compound 100 µM) | relative viability ([2]; first compound 1 µM) | relative viability ([2]; first compound 3.162 µM) | relative viability ([2]; first compound 10 µM) | relative viability ([2]; first compound 100 µM) | relative viability (Bicalutamide + OSI-027; first compound 0.08 µM) | relative viability (Bicalutamide + OSI-027; first compound 0.253 µM) | relative viability (Bicalutamide + OSI-027; first compound 0.8 µM) | relative viability (Bicalutamide + OSI-027; first compound 2.53 µM) | relative viability ([2]; first compound 31.62 µM) |
| --- | --- | --- | --- | --- | --- | --- | --- | --- | --- | --- | --- | --- | --- | --- | --- | --- | --- | --- | --- |
| NCI-H2405 | 0.585 | 0.659 | 0.634 | 0.556 | 0.663 | 0.79 | 0.841 | 1.04 | 0.696 | 0.907 | 0.696 | 0.732 | 0.854 | 0.665 | 0.651 | 0.568 | 0.624 | 0.632 |  |
| NCI-H1355 | 0.462 | 0.455 | 0.372 | 0.425 | 0.498 | 1.05 | 1.06 | 1.18 | 1.06 | 0.983 | 0.382 | 0.328 | 0.316 | 0.336 | 0.433 | 0.367 | 0.464 | 0.4 | 0.343 |
| NCI-H358 | 0.813 | 0.758 | 0.956 | 0.769 | 0.797 | 0.681 | 0.702 | 0.521 | 0.604 | 0.64 | 0.2 | 0.21 | 0.223 | 0.238 | 0.903 | 0.651 | 1.01 | 0.67 | 0.247 |
| RERF-LC-KJ | 0.614 | 0.607 | 0.6 | 0.516 | 0.54 | 0.771 | 0.82 | 0.855 | 0.813 | 0.891 | 0.738 | 0.745 | 0.791 | 0.72 | 0.679 | 0.56 | 0.563 | 0.543 | 0.794 |
| NCI-H23 | 0.605 | 0.695 | 0.612 | 0.71 | 0.661 | 0.386 | 0.514 | 0.514 | 0.494 | 0.423 | 0.299 | 0.294 | 0.308 | 0.303 | 0.721 | 0.544 | 0.605 | 0.495 | 0.277 |
| HOP-62 | 0.799 | 0.743 | 1.02 | 0.803 | 0.891 | 0.923 | 0.876 |  | 0.952 | 0.65 | 0.217 | 0.229 | 0.186 | 0.138 | 0.927 | 0.844 | 0.956 | 0.785 | 0.211 |
| HARA | 0.518 | 0.567 | 0.624 | 0.436 | 0.571 | 1.05 | 1.03 | 0.983 | 0.991 | 1.06 | 0.624 | 0.572 |  | 0.558 | 0.633 | 0.361 | 0.744 | 0.483 | 0.545 |
| PC-14 | 0.788 | 0.837 | 1.37 | 0.825 | 0.841 | 0.991 | 0.868 | 0.826 | 0.966 | 0.997 | 0.226 | 0.229 | 0.204 | 0.201 | 0.825 | 0.697 | 1.6 | 0.606 | 0.262 |
| NCI-H1755 | 0.77 | 0.773 | 0.729 | 0.777 | 0.726 | 0.973 | 0.797 | 0.884 | 0.881 | 1 | 0.793 | 0.684 | 0.721 | 0.659 | 0.768 | 0.687 | 0.82 | 0.524 | 0.672 |
